Laboratory results reported in patent US20260317312A1, “ISOXAZOLIDINES AS RIPK1 INHIBITORS AND USE THEREOF” (GENZYME CORPORATION, priority 2023, published 2026).

Assays:
U937 cells = test: Cellular assay in U937 cells to measure activity of RIPK1-inhibitors on cell death (necroptosis); type: cell-based; conditions: Homo sapiens, U-937, TNFα/zVAD.fmk induced cell death (necroptosis), overnight (18 to 24 hrs), 37° C., MTS readout
[1] = target: T1, hRIPK1 (aa 1-375) fusion protein (Homo sapiens, UniProt Q13546); test: Receptor-Interacting Protein Kinase 1 inhibition, ADP Glo assay (conversion of ATP to ADP due to autophosphorylation); type: biochemical; conditions: ATP 50 μM, 30 min preincubation, 240 min incubation, room temperature, DMSO 1%
T1 construct: hRIPK1 (aa 1-375) fusion protein
T1 sequence (Q13546 1-375): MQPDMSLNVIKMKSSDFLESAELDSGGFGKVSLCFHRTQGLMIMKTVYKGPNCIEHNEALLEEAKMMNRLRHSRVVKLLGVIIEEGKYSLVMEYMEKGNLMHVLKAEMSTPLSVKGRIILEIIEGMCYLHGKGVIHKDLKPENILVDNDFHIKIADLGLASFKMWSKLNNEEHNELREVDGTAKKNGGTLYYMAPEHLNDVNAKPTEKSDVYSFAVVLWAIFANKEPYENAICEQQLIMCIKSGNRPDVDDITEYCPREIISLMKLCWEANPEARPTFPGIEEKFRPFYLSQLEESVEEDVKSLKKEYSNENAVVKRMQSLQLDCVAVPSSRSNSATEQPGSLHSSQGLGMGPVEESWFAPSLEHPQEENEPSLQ
In short: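 The readout was ADP-Glo luminescence after a 240 min rt autophosphorylation reaction with 50 μM ATP, following 30 min preincubation of 3.6 μg/ml hRIPK1 (aa 1-375) fusion with compound at 33300-1.69 nM final in 1% DMSO. Values came from Levenberg-Marquardt nonlinear fits.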

| Compound | IC50 (U937 cells) [nM] | IC50 [1] [nM] |
| --- | --- | --- |
| N#Cc1cc(F)cc(OC[C@H]2CC[C@@H](C(=O)N3OCC[C@H]3c3cc(F)cc(F)c3)CC2)c1 [Compound 53, cis-3-((4-((S)-3-(3,5-difluorophenyl)isoxazolidine-2-carbonyl)cyclohexyl)methoxy)-5-fluorobenzonitrile] | 17 | 18 |
| NC(=O)c1cc(OC[C@H]2CC[C@@H](C(=O)N3OCC[C@H]3c3cc(F)cc(F)c3)CC2)ncn1 [Compound 54, cis-6-((4-((S)-3-(3,5-difluorophenyl)isoxazolidine-2-carbonyl)cyclohexyl)methoxy)pyrimidine-4-carboxamide] | 364 | 80 |
| N#Cc1cc(OC[C@H]2CC[C@@H](C(=O)N3OCC[C@H]3c3cc(F)cc(F)c3)CC2)ncn1 [Compound 55, cis-6-((4-((S)-3-(3,5-difluorophenyl)isoxazolidine-2-carbonyl)cyclohexyl)methoxy)pyrimidine-4-carbonitrile] | 1530 | 56 |
| O=C([C@H]1CC[C@@H](COc2cc(Cl)ncn2)CC1)N1OCC[C@H]1c1cc(F)cc(F)c1 [Compound 56, cis-(4-(((6-chloropyrimidin-4-yl)oxy)methyl)cyclohexyl)((S)-3-(3,5-difluorophenyl)isoxazolidin-2-yl)methanone] | 125 | 47 |
| CC1(C)OC(=O)N(c2ccc(Cl)c(OC[C@H]3CC[C@H](C(=O)N4OCC[C@H]4c4cc(F)cc(F)c4)CC3)c2)C1=O [Compound 57, trans-3-(4-chloro-3-((4-((S)-3-(3,5-difluorophenyl)isoxazolidine-2-carbonyl)cyclohexyl)methoxy)phenyl)-5,5-dimethyloxazolidine-2,4-dione] | 37 | 38 |
| O=C1CCC(=O)N1c1ccc(Cl)c(OC[C@H]2CC[C@H](C(=O)N3OCC[C@H]3c3cc(F)cc(F)c3)CC2)c1 [Compound 58, trans-1-(4-chloro-3-((4-((S)-3-(3,5-difluorophenyl)isoxazolidine-2-carbonyl)cyclohexyl)methoxy)phenyl)pyrrolidine-2,5-dione] | 104 | 44 |
| CC1(C)OC(=O)N(c2ccc(F)c(OC[C@H]3CC[C@H](C(=O)N4OCC[C@H]4c4cc(F)cc(F)c4)CC3)c2)C1=O [Compound 59, trans-3-(3-((4-((S)-3-(3,5-difluorophenyl)isoxazolidine-2-carbonyl)cyclohexyl)methoxy)-4-fluorophenyl)-5,5-dimethyloxazolidine-2,4-dione] | 30 | 29 |
| O=C1CCCN1c1ccc(Cl)c(OC[C@H]2CC[C@H](C(=O)N3OCC[C@H]3c3cc(F)cc(F)c3)CC2)c1 [Compound 60, trans-1-(4-chloro-3-((4-((S)-3-(3,5-difluorophenyl)isoxazolidine-2-carbonyl)cyclohexyl)methoxy)phenyl)pyrrolidin-2-one] | 112 | 76 |
| N#Cc1cc(F)cc(O[C@H]2C[C@@H](C(=O)N3OCC[C@H]3c3cc(F)cc(F)c3)C2)c1 [Compound 61, cis-3-(3-((S)-3-(3,5-difluorophenyl)isoxazolidine-2-carbonyl)cyclobutoxy)-5-fluorobenzonitrile] | 126 | 54 |
| Cc1cc(C)n(-c2ccc(OC[C@H]3CC[C@H](C(=O)N4OCC[C@H]4c4cc(F)cc(F)c4)CC3)c(F)c2)n1 [Compound 62, trans-((S)-3-(3,5-difluorophenyl)isoxazolidin-2-yl)(4-((4-(3,5-dimethyl-1H-pyrazol-1-yl)-2-fluorophenoxy)methyl)cyclohexyl)methanone] | 34 | 28 |
| CN1CC(=O)N(c2ccc(Cl)c(OC[C@H]3CC[C@H](C(=O)N4OCC[C@H]4c4cc(F)cc(F)c4)CC3)c2)C1=O [Compound 63, trans-3-(4-chloro-3-((4-((S)-3-(3,5-difluorophenyl)isoxazolidine-2-carbonyl)cyclohexyl)methoxy)phenyl)-1-methylimidazolidine-2,4-dione] | 45 | 44 |
| Cc1nnc(C)n1-c1ccc(F)c(OC[C@H]2CC[C@H](C(=O)N3OCC[C@H]3c3cc(F)cc(F)c3)CC2)c1 [Compound 64, trans-((S)-3-(3,5-difluorophenyl)isoxazolidin-2-yl)(4-((5-(3,5-dimethyl-4H-1,2,4-triazol-4-yl)-2-fluorophenoxy)methyl)cyclohexyl)methanone] | 529 | 56 |
| N#Cc1cc(O[C@H]2C[C@@H](C(=O)N3OCC[C@H]3c3cc(F)cc(F)c3)C2)ccc1F [Compound 65, cis-5-(3-((S)-3-(3,5-difluorophenyl)isoxazolidine-2-carbonyl)cyclobutoxy)-2-fluorobenzonitrile] | 49 | 18 |
| NS(=O)(=O)c1cccc(OC[C@H]2CC[C@H](C(=O)N3OCC[C@H]3c3cc(F)cc(F)c3)CC2)c1 [Compound 66, trans-3-((4-((S)-3-(3,5-difluorophenyl)isoxazolidine-2-carbonyl)cyclohexyl)methoxy)benzenesulfonamide] | 8 | 35 |
| Cc1nnc(C)n1-c1ccc(OC[C@H]2CC[C@H](C(=O)N3OCC[C@H]3c3cc(F)cc(F)c3)CC2)c(F)c1 [Compound 67, trans-((S)-3-(3,5-difluorophenyl)isoxazolidin-2-yl)(4-((4-(3,5-dimethyl-4H-1,2,4-triazol-4-yl)-2-fluorophenoxy)methyl)cyclohexyl)methanone] | 128 | 46 |
| Cn1ccn(-c2ccc(OC[C@H]3CC[C@H](C(=O)N4OCC[C@H]4c4cc(F)cc(F)c4)CC3)c(F)c2)c1=O [Compound 68, trans-1-(4-((4-((S)-3-(3,5-difluorophenyl)isoxazolidine-2-carbonyl)cyclohexyl)methoxy)-3-fluorophenyl)-3-methyl-1,3-dihydro-2H-imidazol-2-one] | 8 | 19 |
| O=C([C@H]1C[C@@H](n2cnc3cc(F)ccc32)C1)N1OCC[C@H]1c1cc(F)cc(F)c1 [Compound 69, cis-((S)-3-(3,5-difluorophenyl)isoxazolidin-2-yl)(3-(5-fluoro-1H-benzo[d]imidazol-1-yl)cyclobutyl)methanone] | 35 | 26 |
| N#Cc1cc(F)cc([C@@H]2CCON2C(=O)[C@H]2C[C@@H](n3cnc4cc(F)ccc43)C2)c1 [Compound 70, cis-3-fluoro-5-((S)-2-(3-(5-fluoro-1H-benzo[d]imidazol-1-yl)cyclobutane-1-carbonyl)isoxazolidin-3-yl)benzonitrile] | 349 | 39 |
| N#Cc1cccc(OC[C@H]2CC[C@H](C(=O)N3OCC[C@H]3c3cncc(C#N)c3)CC2)c1 [Compound 71, trans-5-((S)-2-(4-((3-cyanophenoxy)methyl)cyclohexane-1-carbonyl)isoxazolidin-3-yl)nicotinonitrile] | 6 | 14 |
| N#Cc1cncc([C@@H]2CCON2C(=O)[C@H]2CC[C@H](COc3ccc(F)c(C#N)c3)CC2)c1 [Compound 72, trans-5-((S)-2-(4-((3-cyano-4-fluorophenoxy)methyl)cyclohexane-1-carbonyl)isoxazolidin-3-yl)nicotinonitrile] | 13 | 15 |
| N#Cc1cncc([C@@H]2CCON2C(=O)[C@H]2CC[C@H](COc3cccc(C(N)=O)c3)CC2)c1 [Compound 73, trans-3-((4-((S)-3-(5-cyanopyridin-3-yl)isoxazolidine-2-carbonyl)cyclohexyl)methoxy)benzamide] | 26 | 29 |
